According to patent US20050256301A1 (The University of Queensland, priority 1998, published 2005):
Read-outs that look alike come from different tables or passages of the source.

How the values were obtained:
[1] = human, plasma
[2] = biological target: endoproteinase Glu-C (Endo Glu-C) (Staphylococcus aureus, UniProt P0C1U8); conditions: pH 8
[3] = biological target: P/Q type Ca channels (Rattus norvegicus, UniProt P54282); assay type: binding
[4] = biological target: T1, N-type voltage-sensitive calcium channels (Rattus norvegicus, UniProt Q02294); assay type: binding
T1 construct: Rats were sacrificed by cervical dislocation and their brains removed and immediately frozen in liquid nitrogen; from tissue; host or cells: rat brain membrane
T1 sequence (Q02294 whole entry, looked up): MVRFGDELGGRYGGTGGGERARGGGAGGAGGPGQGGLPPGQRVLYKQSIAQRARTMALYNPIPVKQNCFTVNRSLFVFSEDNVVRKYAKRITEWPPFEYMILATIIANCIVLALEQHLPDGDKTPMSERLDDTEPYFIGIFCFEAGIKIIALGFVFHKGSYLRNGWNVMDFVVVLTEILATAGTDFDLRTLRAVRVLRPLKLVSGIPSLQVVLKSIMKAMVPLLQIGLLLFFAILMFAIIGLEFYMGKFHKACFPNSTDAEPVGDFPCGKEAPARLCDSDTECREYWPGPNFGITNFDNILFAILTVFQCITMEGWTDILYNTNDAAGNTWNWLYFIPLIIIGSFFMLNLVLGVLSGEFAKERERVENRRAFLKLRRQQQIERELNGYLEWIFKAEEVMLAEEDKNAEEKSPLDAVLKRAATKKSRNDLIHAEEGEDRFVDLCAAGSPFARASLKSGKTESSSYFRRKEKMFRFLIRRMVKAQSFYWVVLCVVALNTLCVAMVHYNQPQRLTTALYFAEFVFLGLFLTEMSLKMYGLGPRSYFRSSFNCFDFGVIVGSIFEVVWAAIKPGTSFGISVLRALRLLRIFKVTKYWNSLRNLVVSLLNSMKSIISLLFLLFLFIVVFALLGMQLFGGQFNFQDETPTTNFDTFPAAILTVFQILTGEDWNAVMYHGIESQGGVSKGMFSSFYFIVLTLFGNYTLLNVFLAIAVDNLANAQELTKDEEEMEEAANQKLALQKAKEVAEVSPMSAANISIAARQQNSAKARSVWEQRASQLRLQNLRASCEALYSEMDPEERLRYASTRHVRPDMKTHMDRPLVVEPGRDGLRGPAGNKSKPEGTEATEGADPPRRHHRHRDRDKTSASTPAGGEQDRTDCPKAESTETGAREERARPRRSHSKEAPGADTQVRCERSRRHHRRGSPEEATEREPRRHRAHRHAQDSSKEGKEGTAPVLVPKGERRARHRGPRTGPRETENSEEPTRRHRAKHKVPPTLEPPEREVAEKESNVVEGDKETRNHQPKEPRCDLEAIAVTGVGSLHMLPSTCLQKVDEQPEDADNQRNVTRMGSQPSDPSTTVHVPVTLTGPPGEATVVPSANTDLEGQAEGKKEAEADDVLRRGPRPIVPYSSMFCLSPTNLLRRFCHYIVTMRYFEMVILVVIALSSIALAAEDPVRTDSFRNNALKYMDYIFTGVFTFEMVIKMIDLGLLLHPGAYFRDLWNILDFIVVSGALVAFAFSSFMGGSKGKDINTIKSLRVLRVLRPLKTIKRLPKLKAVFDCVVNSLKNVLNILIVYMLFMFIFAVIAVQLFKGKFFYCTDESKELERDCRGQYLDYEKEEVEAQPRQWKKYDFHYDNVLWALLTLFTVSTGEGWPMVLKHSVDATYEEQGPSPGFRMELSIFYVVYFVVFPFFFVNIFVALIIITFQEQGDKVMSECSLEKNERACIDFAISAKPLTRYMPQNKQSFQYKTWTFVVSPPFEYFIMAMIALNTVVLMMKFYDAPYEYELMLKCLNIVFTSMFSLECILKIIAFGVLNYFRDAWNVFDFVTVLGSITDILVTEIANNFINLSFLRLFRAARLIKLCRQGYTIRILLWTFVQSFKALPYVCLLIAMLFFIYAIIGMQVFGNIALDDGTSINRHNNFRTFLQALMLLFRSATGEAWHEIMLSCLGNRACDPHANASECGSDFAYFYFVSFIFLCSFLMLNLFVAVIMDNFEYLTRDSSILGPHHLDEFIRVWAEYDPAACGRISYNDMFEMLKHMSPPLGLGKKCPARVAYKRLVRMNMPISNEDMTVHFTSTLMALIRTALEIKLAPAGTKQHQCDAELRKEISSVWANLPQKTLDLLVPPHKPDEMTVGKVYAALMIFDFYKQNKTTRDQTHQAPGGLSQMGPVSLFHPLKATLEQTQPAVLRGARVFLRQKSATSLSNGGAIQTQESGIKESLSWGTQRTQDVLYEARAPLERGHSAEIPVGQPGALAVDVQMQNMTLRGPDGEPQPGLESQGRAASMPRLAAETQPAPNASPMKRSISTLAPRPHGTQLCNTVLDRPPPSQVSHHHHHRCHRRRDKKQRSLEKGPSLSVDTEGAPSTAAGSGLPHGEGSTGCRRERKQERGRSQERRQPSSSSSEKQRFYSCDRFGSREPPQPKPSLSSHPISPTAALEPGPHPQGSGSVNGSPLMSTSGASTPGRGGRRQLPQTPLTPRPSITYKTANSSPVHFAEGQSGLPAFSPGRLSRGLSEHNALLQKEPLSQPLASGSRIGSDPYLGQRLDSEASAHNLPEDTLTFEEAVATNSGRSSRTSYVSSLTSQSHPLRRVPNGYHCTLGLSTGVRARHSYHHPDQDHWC

[5] = system: bovine adrenal chromaffin cells; assay type: cell-based
[6] = biological target: human noradrenaline transporter (NET) (human) (UniProt P23975); test: displacement of [3H]nisoxetine from COS-7 hNET membranes
human noradrenaline transporter (NET) (human), sequence (P23975 whole entry): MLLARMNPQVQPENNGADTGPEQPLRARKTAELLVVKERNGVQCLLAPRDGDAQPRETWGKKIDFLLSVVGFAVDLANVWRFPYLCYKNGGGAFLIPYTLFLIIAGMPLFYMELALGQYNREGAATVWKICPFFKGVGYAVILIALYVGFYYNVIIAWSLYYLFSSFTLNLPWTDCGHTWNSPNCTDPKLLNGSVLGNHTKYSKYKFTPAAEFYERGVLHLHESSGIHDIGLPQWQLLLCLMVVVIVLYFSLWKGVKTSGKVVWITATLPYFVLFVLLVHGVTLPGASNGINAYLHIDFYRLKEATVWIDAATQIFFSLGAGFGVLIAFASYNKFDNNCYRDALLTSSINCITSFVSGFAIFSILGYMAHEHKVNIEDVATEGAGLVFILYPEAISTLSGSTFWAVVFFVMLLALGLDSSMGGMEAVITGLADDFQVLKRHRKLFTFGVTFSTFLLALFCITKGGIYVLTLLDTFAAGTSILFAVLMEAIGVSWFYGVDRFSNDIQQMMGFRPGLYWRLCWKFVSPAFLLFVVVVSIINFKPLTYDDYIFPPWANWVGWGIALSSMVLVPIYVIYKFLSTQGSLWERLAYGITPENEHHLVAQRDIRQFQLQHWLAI

[7] = biological target: human noradrenaline transporter (NET) (human) (UniProt P23975); test: as above; remark: listed apart in the source
[8] = biological target: N-type voltage-sensitive calcium channel (rat brain membrane) (rat) (UniProt Q02294)

P/Q type Ca channels, sequence (P54282 whole entry, looked up): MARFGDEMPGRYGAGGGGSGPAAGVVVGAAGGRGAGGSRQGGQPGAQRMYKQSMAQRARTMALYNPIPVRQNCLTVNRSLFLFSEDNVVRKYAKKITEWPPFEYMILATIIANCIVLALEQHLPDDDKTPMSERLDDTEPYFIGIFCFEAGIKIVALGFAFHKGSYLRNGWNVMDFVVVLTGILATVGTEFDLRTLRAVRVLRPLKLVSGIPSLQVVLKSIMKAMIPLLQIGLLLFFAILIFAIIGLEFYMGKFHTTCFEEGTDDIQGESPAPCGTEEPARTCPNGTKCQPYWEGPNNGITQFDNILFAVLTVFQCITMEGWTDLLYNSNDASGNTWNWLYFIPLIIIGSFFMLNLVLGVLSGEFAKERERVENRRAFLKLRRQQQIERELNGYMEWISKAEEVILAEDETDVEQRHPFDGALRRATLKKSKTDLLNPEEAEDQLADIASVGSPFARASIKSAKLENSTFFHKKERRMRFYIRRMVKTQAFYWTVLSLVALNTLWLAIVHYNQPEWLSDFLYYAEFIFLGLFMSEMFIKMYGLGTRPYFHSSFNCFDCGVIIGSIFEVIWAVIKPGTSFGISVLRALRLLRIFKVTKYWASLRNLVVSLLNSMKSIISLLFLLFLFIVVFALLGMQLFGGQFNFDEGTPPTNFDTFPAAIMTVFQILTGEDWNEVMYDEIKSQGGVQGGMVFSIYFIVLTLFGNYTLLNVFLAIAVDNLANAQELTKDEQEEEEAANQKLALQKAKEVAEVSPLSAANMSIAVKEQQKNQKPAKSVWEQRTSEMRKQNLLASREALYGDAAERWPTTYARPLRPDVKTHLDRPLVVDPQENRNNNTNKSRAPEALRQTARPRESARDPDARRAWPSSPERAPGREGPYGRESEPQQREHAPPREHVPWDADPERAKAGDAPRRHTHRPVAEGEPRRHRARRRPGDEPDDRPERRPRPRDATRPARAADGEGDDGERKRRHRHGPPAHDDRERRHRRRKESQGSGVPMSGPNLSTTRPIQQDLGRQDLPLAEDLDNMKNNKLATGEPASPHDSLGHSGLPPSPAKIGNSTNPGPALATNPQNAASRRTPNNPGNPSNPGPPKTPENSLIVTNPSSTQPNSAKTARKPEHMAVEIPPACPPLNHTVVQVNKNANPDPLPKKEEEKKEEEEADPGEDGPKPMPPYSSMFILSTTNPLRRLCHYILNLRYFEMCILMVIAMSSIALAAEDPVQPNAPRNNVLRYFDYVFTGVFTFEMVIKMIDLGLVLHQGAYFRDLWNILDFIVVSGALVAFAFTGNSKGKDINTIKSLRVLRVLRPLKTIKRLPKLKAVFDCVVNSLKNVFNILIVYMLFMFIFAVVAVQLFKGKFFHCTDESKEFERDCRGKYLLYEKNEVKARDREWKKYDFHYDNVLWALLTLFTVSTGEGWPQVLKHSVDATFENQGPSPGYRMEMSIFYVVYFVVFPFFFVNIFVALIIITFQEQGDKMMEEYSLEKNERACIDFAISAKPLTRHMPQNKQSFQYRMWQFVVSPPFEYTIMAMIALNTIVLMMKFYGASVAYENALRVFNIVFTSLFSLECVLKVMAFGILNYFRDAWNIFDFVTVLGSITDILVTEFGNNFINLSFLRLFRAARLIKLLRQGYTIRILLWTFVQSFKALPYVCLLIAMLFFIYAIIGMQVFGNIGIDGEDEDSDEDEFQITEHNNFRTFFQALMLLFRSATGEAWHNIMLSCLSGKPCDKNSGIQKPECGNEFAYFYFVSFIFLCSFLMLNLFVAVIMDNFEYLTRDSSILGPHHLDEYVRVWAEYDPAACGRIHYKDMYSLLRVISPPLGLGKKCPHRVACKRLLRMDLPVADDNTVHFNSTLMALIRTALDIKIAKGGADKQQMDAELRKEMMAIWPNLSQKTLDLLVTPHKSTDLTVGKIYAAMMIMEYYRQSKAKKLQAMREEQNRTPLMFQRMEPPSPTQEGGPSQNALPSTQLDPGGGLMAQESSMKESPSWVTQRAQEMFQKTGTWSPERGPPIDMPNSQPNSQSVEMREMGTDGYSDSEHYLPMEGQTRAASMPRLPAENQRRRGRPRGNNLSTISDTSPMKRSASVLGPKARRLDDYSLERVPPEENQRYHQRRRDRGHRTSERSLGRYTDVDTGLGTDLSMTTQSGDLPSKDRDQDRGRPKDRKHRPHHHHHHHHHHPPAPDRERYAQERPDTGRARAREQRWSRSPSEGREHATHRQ

What does the source list for CC(C)C[C@@H]1NC(=O)[C@H](CC(N)=O)NC(=O)[C@H](CO)NC(=O)[C@H](Cc2cnc[nH]2)NC(=O)[C@H](CCC(=O)O)NC(=O)[C@H](CC(C)C)NC(=O)[C@H](Cc2cnc[nH]2)NC(=O)[C@@H]2CSSC[C@H](NC(=O)CN)C(=O)N[C@@H](CSSC[C@@H](C(N)=O)NC1=O)C(=O)N[C@@H](CO)C(=O)N[C@@H](CC(N)=O)C(=O)N1CCC[C@H]1C(=O)N[C@@H](C(C)C)C(=O)N2 [MII, α-conotoxin MII]?
half-life [1]: ~16 h; half-life [2]: ~10 h

Which “ability to displace 125I-MVIIC” value [3] does the source give for “CKGKGAKCSRLMYDCCTGSCRSGKCTRNG [cyclo-MVIIA 2]” here?
The value was “did not show any ability to displace”.

And the “selectivity N-type over P/Q-type channel” value [3]?
Its value is “selectivity for the N-type channel over the P/Q-type channel”.

For “CKGKGAKCSRLMYDCCTGSCRSGKCTRNGLPG [cyclo-MVIIA 1]”, which EC50 [4] is on record?
The EC50 was 85 nM.

Which EC50 [4] does the source give for “GLPVCKGKGAKCSRIMYDCCTGSCRSGKCTRG [SEQ ID NO. 7]” here?
The EC50 was 1.08 nM.

For “Gly Cys Cys Ser Asp Pro Arg Cys Asn Tyr Asp His Pro Glu Ile Cys Gly Gly Ala Ala Gly Gly [cVc1.1-6]”, which “inhibition of nicotine-evoked catecholamine release, activity relative to Vc1.1” value [5] is on record?
The value was “identical, within experimental error, to that of acyclic Vc1.1”.

Which EC50 [6] does the source give for “[Sec5,10]MrIA-NH2 (peptide; other documents disagree on this pair)” here?
The EC50 was 1380 nM.

What about the log EC50 [6] of the same compound?
Its log EC50 is -5.86.

Which results are given for “χ-conotoxin MrIA-NH2 (peptide; other documents disagree on this pair)”?
EC50 [6]: 1810 nM; log EC50 [6]: -5.74; EC50 [7]: 1470 nM

For ω-conotoxin MVIIA (peptide), which EC50 [8] is on record?
Its EC50 is 0.044 nM.
